Laboratory results taken from ChEMBL document CHEMBL4138123, “Design, synthesis and biological evaluation of novel pyrazolochalcones as potential modulators of PI3K/Akt/mTOR pathway and inducers of apoptosis in breast cancer cells” (Eur J Med Chem, 2017).

Columns and labels:
Assay type in all cases: functional
[1] = tested on: ACHN; experiment: Cytotoxicity against human ACHN cells assessed as cell growth at 10 uM after 48 hrs by sulforhodamine B assay relative to control; conditions: read-out: Activity
[2] = tested on: HT-29; experiment: Cytotoxicity against human HT-29 cells assessed as cell growth at 0.01 uM after 48 hrs by sulforhodamine B assay relative to control; conditions: HT-29, 48 h, read-out: Activity
[3] = tested on: KM12; experiment: Cytotoxicity against human KM12 cells assessed as growth inhibition after 48 hrs by sulforhodamine B assay; conditions: KM12, 48 h
[4] = tested on: Malme-3M; experiment: Cytotoxicity against human MALME-3M cells assessed as cell growth at 0.01 uM after 48 hrs by sulforhodamine B assay relative to control; conditions: read-out: Activity
[5] = tested on: Malme-3M; experiment: Cytotoxicity against human MALME-3M cells assessed as cell growth at 100 uM after 48 hrs by sulforhodamine B assay relative to control; conditions: read-out: Activity
[6] = tested on: BT-549; experiment: Cytotoxicity against human BT549 cells assessed as cell growth at 10 uM after 48 hrs by sulforhodamine B assay relative to control; conditions: BT-549, 48 h, read-out: Activity
[7] = tested on: SF-539; experiment: Cytotoxicity against human SF539 cells assessed as cell growth at 0.1 uM after 48 hrs by sulforhodamine B assay relative to control; conditions: SF-539, 48 h, read-out: Activity
[8] = tested on: TK-10; experiment: Cytotoxicity against human TK10 cells assessed as cell growth at 0.1 uM after 48 hrs by sulforhodamine B assay relative to control; conditions: TK-10, 48 h, read-out: Activity
[9] = tested on: NCI-H226; experiment: Cytotoxicity against human NCI-H226 cells assessed as cell growth at 100 uM after 48 hrs by sulforhodamine B assay relative to control; conditions: NCI-H226, 48 h, read-out: Activity
[10] = tested on: MDA-MB-435; experiment: Cytotoxicity against human MDA-MB-435 cells assessed as cell growth at 100 uM after 48 hrs by sulforhodamine B assay relative to control; conditions: MDA-MB-435, 48 h, read-out: Activity
[11] = tested on: MDA-MB-468; experiment: Cytotoxicity against human MDA-MB-468 cells assessed as cell growth at 100 uM after 48 hrs by sulforhodamine B assay relative to control; conditions: MDA-MB-468, 48 h, read-out: Activity
[12] = tested on: Malme-3M; experiment: Cytotoxicity against human MALME-3M cells assessed as cell growth at 10 uM after 48 hrs by sulforhodamine B assay relative to control; conditions: read-out: Activity
[13] = tested on: RPMI-8226; experiment: Cytotoxicity against human RPMI8226 cells assessed as cell growth at 1 uM after 48 hrs by sulforhodamine B assay relative to control; conditions: RPMI-8226, 48 h, read-out: Activity
[14] = tested on: RXF 393; experiment: Cytotoxicity against human RXF393 cells assessed as cell growth at 1 uM after 48 hrs by sulforhodamine B assay relative to control; conditions: RXF 393, 48 h, read-out: Activity
[15] = tested on: HCC 2998; experiment: Cytotoxicity against human HCC2998 cells assessed as cell growth at 1 uM after 48 hrs by sulforhodamine B assay relative to control; conditions: HCC 2998, 48 h, read-out: Activity
[16] = tested on: MCF7; experiment: Cytotoxicity against human MCF7 cells assessed as growth inhibition after 48 hrs by sulforhodamine B assay; conditions: MCF7, 48 h
[17] = tested on: ACHN; experiment: Cytotoxicity against human ACHN cells assessed as cell growth at 100 uM after 48 hrs by sulforhodamine B assay relative to control; conditions: read-out: Activity
[18] = tested on: NCI-H23; experiment: Cytotoxicity against human NCI-H23 cells assessed as cell growth at 0.01 uM after 48 hrs by sulforhodamine B assay relative to control; conditions: NCI-H23, 48 h, read-out: Activity
[19] = tested on: TK-10; experiment: Cytotoxicity against human TK10 cells assessed as cell growth at 0.01 uM after 48 hrs by sulforhodamine B assay relative to control; conditions: TK-10, 48 h, read-out: Activity
[20] = tested on: KM12; experiment: Cytotoxicity against human KM12 cells assessed as cell growth at 1 uM after 48 hrs by sulforhodamine B assay relative to control; conditions: KM12, 48 h, read-out: Activity
[21] = tested on: MDA-MB-468; experiment: Cytotoxicity against human MDA-MB-468 cells assessed as cell growth at 10 uM after 48 hrs by sulforhodamine B assay relative to control; conditions: MDA-MB-468, 48 h, read-out: Activity
[22] = tested on: CCRF-CEM; experiment: Cytotoxicity against human CCRF-CEM cells assessed as cell growth at 100 uM after 48 hrs by sulforhodamine B assay relative to control; conditions: read-out: Activity
[23] = tested on: HCT-116; experiment: Cytotoxicity against human HCT116 cells assessed as cell growth at 10 uM after 48 hrs by sulforhodamine B assay relative to control; conditions: HCT-116, 48 h, read-out: Activity
[24] = tested on: NCI/ADR-RES; experiment: Cytotoxicity against human NCI/ADR-RES cells assessed as cell growth at 100 uM after 48 hrs by sulforhodamine B assay relative to control; conditions: read-out: Activity
[25] = tested on: TK-10; experiment: Cytotoxicity against human TK10 cells assessed as growth inhibition after 48 hrs by sulforhodamine B assay; conditions: TK-10, 48 h
[26] = tested on: HT-29; experiment: Cytotoxicity against human HT-29 cells assessed as cell growth at 100 uM after 48 hrs by sulforhodamine B assay relative to control; conditions: HT-29, 48 h, read-out: Activity
[27] = tested on: K562; experiment: Cytotoxicity against human K562 cells assessed as cell growth at 0.1 uM after 48 hrs by sulforhodamine B assay relative to control; conditions: K562, 48 h, read-out: Activity
[28] = tested on: K562; experiment: Cytotoxicity against human K562 cells assessed as cell growth at 100 uM after 48 hrs by sulforhodamine B assay relative to control; conditions: K562, 48 h, read-out: Activity
[29] = tested on: 786-0; experiment: Cytotoxicity against human 786-0 cells assessed as cell growth at 10 uM after 48 hrs by sulforhodamine B assay relative to control; conditions: 786-0, 48 h, read-out: Activity
[30] = tested on: ACHN; experiment: Cytotoxicity against human ACHN cells assessed as cell growth at 0.01 uM after 48 hrs by sulforhodamine B assay relative to control; conditions: read-out: Activity
[31] = tested on: SK-MEL-28; experiment: Cytotoxicity against human SK-MEL-28 cells assessed as cell growth at 0.01 uM after 48 hrs by sulforhodamine B assay relative to control; conditions: SK-MEL-28, 48 h, read-out: Activity
[32] = tested on: HCT-15; experiment: Cytotoxicity against human HCT15 cells assessed as growth inhibition after 48 hrs by sulforhodamine B assay; conditions: HCT-15, 48 h
[33] = tested on: UO-31; experiment: Cytotoxicity against human UO31 cells assessed as cell growth at 0.01 uM after 48 hrs by sulforhodamine B assay relative to control; conditions: UO-31, 48 h, read-out: Activity
[34] = tested on: A549; experiment: Cytotoxicity against human A549/ATCC cells assessed as cell growth at 10 uM after 48 hrs by sulforhodamine B assay relative to control; conditions: A549, 48 h, read-out: Activity
[35] = tested on: MOLT-4; experiment: Cytotoxicity against human MOLT4 cells assessed as cell growth at 10 uM after 48 hrs by sulforhodamine B assay relative to control; conditions: MOLT-4, 48 h, read-out: Activity
[36] = tested on: SK-OV-3; experiment: Cytotoxicity against human SKOV3 cells assessed as cell growth at 1 uM after 48 hrs by sulforhodamine B assay relative to control; conditions: SK-OV-3, 48 h, read-out: Activity

COc1ccc(-c2cc(/C=C/C(=O)c3ccc(OC)c(OC)c3)[nH]n2)cc1
growth at 10 µM [1]: -58%
growth at 0.01 µM [2]: 101%
GI50 [3]: 1.38 µM
LC50 [3]: 7.01 µM
TGI [3]: 3.11 µM
growth at 0.01 µM [4]: 89%
growth at 100 µM [5]: -100%
growth at 10 µM [6]: -70%
growth at 0.1 µM [7]: 94%
growth at 0.1 µM [8]: 102%
growth at 100 µM [9]: -43%
growth at 100 µM [10]: -91%
growth at 100 µM [11]: -76%
growth at 10 µM [12]: -70%
growth at 1 µM [13]: 8%
growth at 1 µM [14]: 72%
growth at 1 µM [15]: 102%
GI50 [16]: 0.41 µM
LC50 [16]: 5.11 µM
TGI [16]: 1.76 µM
growth at 100 µM [17]: -98%
growth at 0.01 µM [18]: 100%
growth at 0.01 µM [19]: 100%
growth at 1 µM [20]: 70%
growth at 10 µM [21]: -69%
growth at 100 µM [22]: -47%
growth at 10 µM [23]: -78%
growth at 100 µM [24]: -22%
GI50 [25]: 2.11 µM
LC50 [25]: 8.78 µM
TGI [25]: 4.31 µM
growth at 100 µM [26]: -81%
growth at 0.1 µM [27]: 108%
growth at 100 µM [28]: -26%
growth at 10 µM [29]: -89%
growth at 0.01 µM [30]: 100%
growth at 0.01 µM [31]: 101%
GI50 [32]: 1.35 µM
LC50 [32]: 9.41 µM
TGI [32]: 3.56 µM
growth at 0.01 µM [33]: 86%
growth at 10 µM [34]: -23%
growth at 10 µM [35]: -10%
growth at 1 µM [36]: 112%

COc1ccc(-c2cc(/C=C/C(=O)c3ccc(N)cc3)[nH]n2)cc1
growth at 10 µM [1]: 2%
growth at 0.01 µM [2]: 97%
GI50 [3]: 1.54 µM
LC50 [3]: 7.61 µM
TGI [3]: 3.42 µM
growth at 0.01 µM [4]: 93%
growth at 100 µM [5]: -82%
growth at 10 µM [6]: -37%
growth at 0.1 µM [7]: 97%
growth at 0.1 µM [8]: 95%
growth at 100 µM [9]: -51%
growth at 100 µM [10]: -75%
growth at 100 µM [11]: -51%
growth at 10 µM [12]: -23%
growth at 1 µM [13]: 36%
growth at 1 µM [14]: 78%
growth at 1 µM [15]: 100%
GI50 [16]: 0.78 µM
LC50 [16]: 34.1 µM
TGI [16]: 3.84 µM
growth at 100 µM [17]: -73%
growth at 0.01 µM [18]: 92%
growth at 0.01 µM [19]: 93%
growth at 1 µM [20]: 77%
growth at 10 µM [21]: -62%
growth at 100 µM [22]: -68%
growth at 10 µM [23]: -53%
growth at 100 µM [24]: -38%
GI50 [25]: 2.81 µM
LC50 [25]: 39.8 µM
TGI [25]: 13 µM
growth at 100 µM [26]: -56%
growth at 0.1 µM [27]: 95%
growth at 100 µM [28]: -60%
growth at 10 µM [29]: -29%
growth at 0.01 µM [30]: 103%
growth at 0.01 µM [31]: 98%
GI50 [32]: 1 µM
LC50 [32]: 34.9 µM
TGI [32]: 3.62 µM
growth at 0.01 µM [33]: 90%
growth at 10 µM [34]: 1%
growth at 10 µM [35]: -2%
growth at 1 µM [36]: 105%
